Results reported in patent US7259144B2, “Methods for diagnosing and treatment of hyperphosphatemic conditions using FGF20 polypeptides” (CuraGen Corporation, priority 2003, dated 2007).

Columns and labels:
Caco2 cells [1] = assay: Caco2 cell proliferation (3H thymidine incorporation) with FGF-20 and kinase inhibitors; format: cell-based; details: inhibitor added 1 hr before FGF-20 (100 ng/ml), PD098059 1, 5, 20, 40 μM, SB203580 1, 10, 20 μM
Procedure: FIG. 7 depicts effect of kinase inhibitors in the proliferation of Caco2 cells. Caco2 cells were incubated with FGF-20 (100 ng/ml) in the presence of various concentrations (1, 5, 20 and 40 μM) of PD098059, inhibitor of MEK which is upstream of ERK or various concentrations (1, 10, 20 μM) of SB203580, inhibitor of p38 MAPK inhibitor.
In addition to the above results, MEK inhibitor PD098059 (1, 5, 20, and 40μM CALBIOCHEM, CA), and p38 MAPK inhibitor SB203580 (1,10,20 μM CALBIOCHEM, CA) were added to the Caco2 cell cultures 1 hr before FGF-20 treatment. Cellular proliferation was tested by standard 3H thymidine incorporation assay known in the art.

NIH 3T3 cells = assay: Induction of DNA synthesis (BrdU incorporation) in NIH 3T3 cells; format: cell-based; details: serum-starved NIH 3T3 cells; 18 h factor, 4 h BrdU incorporation
Procedure: Receptor Specificity NIH 3T3 cells were cultured in 96-well plates to approximately 100% confluence, washed and fed with DMEM without supplements (Life Technologies), and incubated for 24 h. Recombinant CG53135-01 or control protein was then added to the cells for 18 h. Control proteins used were aFGF (positive control) and platelet derived growth factor-BB (PDGFBB) (negative control). To analyze the effect of soluble FGFRs on CG53135-05 activity, recombinant CG53135-05, aFGF, or PDGF-BB (final concentrations of 10, 5 and 3 ng/mL, respectively), were mixed with soluble receptors (final concentrations of 0.2, 1 and 5 ug/mL), and incubated for 30 min at 37° C. prior to addition to serum-starved NIH 3T3 cells. Factor concentrations represent the amount of ligand needed to generate a half maximal BrdU response in NIH 3T3 cells. Soluble FGFRs were Fc chimeras of the following receptor forms (FGFR1β(IIIc); FGFR2β(IIIb); FGFR2α(IIIb); FGFR2α(IIIc); FGFR3α(IIIc); FGFR4) and were obtained from R&D Systems (Minneapolis, Minn.). The BrdU assay was performed according to the manufacturer's specifications (Roche Molecular Biochemicals, Indianapolis, Ind.) using a 4 h BrdU incorporation time.

Caco2 cells [2] = assay: Expression of signal transducing kinases in Caco2 cells with FGF-20; format: cell-based
Procedure: FIG. 4 depicts effect of FGF20 (CG53135) in stimulation of kinases in Caco2 cells. Expression of signal transducing kinases was analyzed after incubation of Caco2 cells with FGF-20 (100 ng/ml) for different time points (10, 30, 60 mins).
(§1) FIG. 6 depicts Effect of FGF-20 on expression of kinases in intestinal epithelial cells. Caco2 cells were incubated with FGF-20 (100 ng/ml) for 10, 30, 60 minutes and expression of p-Elk-1, p-ATF-2 and p-PKC was analyzed. Similarly, HT-29 cells were incubated with FGF-20 (100 ng/ml) for 10, 30, 60 minutes and expression of C-Fos and C-Jun was analyzed.
(§2) MAPK-dependent mechanism may be involved in the regulation of phosphate uptake by FGF signaling. To test this hypothesis, various kinases were tested for their expression in the presence of 100 ng/ml of FGF-20, in Caco2 cells. […] In HT-29 cells, C-Fos and C-Jun were induced, when cultured with FGF-20 (FIG. 6).

HT-29 cells = assay: Expression of C-Fos and C-Jun in HT-29 cells with FGF-20; format: cell-based; details: 100 ng/ml, 10, 30, 60 minutes
Procedure: as §1, §2

[3] = Serum phosphate levels after CG53135-05 treatment, Rhesus monkey model; format: in vivo; details: slow bolus i.v. once daily, 1, 10 mg/kg, dose-dependent (FIG. 2)
Procedure: (§3) To evaluate the role of FGF20 in reduction of phosphate levels, two different animal models (rat and rhesus monkeys) were tested for serum phosphates following treatment with FGF20. Recombinant human FGF20 and the serum phosphate levels were measured. General protocols for the rat and Rhesus monkey models are outlined in the following Tables 1 (for the rat) and 2 (for the Rhesus monkey) below:
(§4) Both animal groups were dosed via a slow bolus intravenous injection in the tail vein, once daily for 14 days. The first day of dosing was designated as study day (“SD”) 1. Animals were dosed through SD 14.

[4] = Serum phosphate levels after CG53135-05 treatment, rat model; format: in vivo; details: slow bolus i.v. once daily, 0.05, 5, 50 mg/kg, dose-dependent (FIG. 1)
Procedure: as §3, §4

OK cells = assay: Phosphate uptake in OK cells; format: cell-based, opossum; details: at 50 ng/ml
Procedure: FIG. 8 depicts effect of FGF9 protein in phosphate transport. OK cells were treated with various concentrations of FGF9 protein and phosphate uptake was measured as noted in Example 6.
FIG. 9 depicts effect of FGF10 protein in phosphate transport. OK cells were treated with various concentrations of FGF10 protein and phosphate uptake was measured as noted in Example 6.
Measurement of phosphate transport is performed in cultured renal proximal tubular epithelial cell line using opossum kidney (OK) cells, in the presence of FGF-20 (CG53135-05). Briefly, OK cells are grown at 37° C. in Dulbecco's modified Eagle's medium with 10% fetal calf serum and seeded in multi-well dishes (6, 24, 96 well dishes). The phosphate uptake in OK cells is determined according to the method described by Hafdi et al (Biochem. J. 1996, 320:615-621).
Role of FGF9 and FGF10 in phosphate uptake was measured by the method described in Biochem. J. 1996, 320:615-621.

## COc1cccc(-c2cc(=O)c3ccccc3o2)c1N [PD098059]
Caco2 cells [1]
  cellular proliferation (3H thymidine incorporation): decrease in cellular proliferation

## C[S+]([O-])c1ccc(-c2nc(-c3ccncc3)c(-c3ccc(F)cc3)[nH]2)cc1 (stereo not drawn) [SB203580]
Caco2 cells [1]
  cellular proliferation (3H thymidine incorporation): decrease in cellular proliferation

## CG53135-05: Recombinant human fibroblast growth factor 20 produced in E. coli; Swiss-Prot Q9NP95; SEQ ID NO:1
NIH 3T3 cells
  amount of ligand needed to generate a half maximal BrdU response: 10 ng/mL
Caco2 cells [2]; 100 ng/ml, 10, 30, 60 mins
  expression of other kinases tested: no other kinase tested, showed any significant induction
  phosphorylated MAPK (p-p38MAPK) expression: induced
Caco2 cells [2]; 100 ng/ml, 10, 30, 60 minutes
  expression of phosphorylated ATF-2: increased expression
  expression of phosphorylated Elk-1: increased expression
  expression of phosphorylated Protein Kinase C: minimal induction
HT-29 cells
  C-Fos expression: induced
  C-Jun expression: induced
[3]
  serum phosphate levels: Statistically significant reductions
[4]
  serum phosphate levels: Statistically significant reductions

## aFGF: positive control protein; factor known to interact with all of the FGFR's under analysis [reference compound]
NIH 3T3 cells
  amount of ligand needed to generate a half maximal BrdU response: 5 ng/mL

B1: PDGF-BB: platelet derived growth factor-BB, negative control protein (protein, UniProt P01127 82-190, looked up)
Platelet-derived growth …: SLGSLTIAEPAMIAECKTRTEVFEISRRLIDRTNANFLVWPPCVEVQRCSGCCNNRNVQCRPTQVQLRPVQVRKIEIVRKKPIFKKATVTLEDHLACKCETVAAARPVT
modifications: homodimer
notes: platelet derived growth factor-BB, negative control protein
NIH 3T3 cells
  amount of ligand needed to generate a half maximal BrdU response: 3 ng/mL

B2: FGF10: human FGF 10 protein, Swiss-Prot Accession No: O15520 (protein, UniProt O15520 38-208, looked up)
Fibroblast growth factor 10: QALGQDMVSPEATNSSSSSFSSPSSAGRHVRSYNHLQGDVRWRKLFSFTKYFLKIEKNGKVSGTKKENCPYSILEITSVEIGVVAVKAINSNYYLAMNKKGKLYGSKEFNNDCKLKERIEENGYNTYASFNWQHNGRQMYVALNGKGAPRRGQKTRRKNTSAHFLPMVVHS
OK cells
  phosphate transport: more efficient in inhibiting the phosphate transport
